Assay results taken from PMC8759731, “Design, synthesis, and evaluation of novel coumarin-dithiocarbamate derivatives (IDs) as anti-colorectal cancer agents” (Journal of Enzyme Inhibition and Medicinal Chemistry, 2021).

Experiments:
SW480 cells [1] = test: Western blot assay, SW480 cells; type: cell-based, human; conditions: 24 h
Experimental: (§1) Cells were cultured in 6-well plates at a density of 40,000 cells per well overnight, and then exposed to selected compounds at different concentrations for 24 h. Subsequently, the cells were lysed in lysate buffer containing 50 mM Tris-HCl (PH 6.8), 2% SDS, 0.1% bromophenol blue, 1.5% DTT, 10% glycerol. The total protein extracts were boiled, sonicated, separated by 10–12% SDS-PAGE gels and transferred to polyvinylidene fluoride (PVDF) membranes. Then the membranes were blocked with 5% non-fat milk at room temperature for 1 h and incubated with primary antibodies at 4 °C overnight. After that, membranes were washed with 1× TBST for three times and incubated with secondary antibody at room temperature for 2 h. Finally, after washing with 1× TBST for three times, the bolts were visualised by an enhanced chemiluminescence kit (Beyotime, China) using the Amersham Imager 600 system (GE Healthcare Life Science, Shanghai, China).

SW480 cells [2] = test: Cell cycle analysis (PI, flow cytometry), SW480 cells; type: cell-based, human; conditions: SW480, 16 μM, 24 h
Experimental: Cells were seeded in 6-well plates (40,000 cells per well) and cultured in RPMI-1640 medium containing 10% FBS overnight. Then the cells were exposed to DMSO or compound ID-11 (8 or 16 μM) for 24 h. After that, cells were collected, washed with cold PBS for twice and fixed in 75% ethanol overnight at 4 °C. Subsequently, ethanol was removed and suspended in PBS for twice, and then RNase A and propidium iodide (PI) (Multi Sciences, Hangzhou, China) was added and keep in the darkness for 30 min. Finally, the percentages of cells in different cell cycle phases were measured using a FACS Calibur flow cytometer (Bectone Dickinson, San Jose, CA, USA).

BRD4 (BD1) = molecular target: T1, BRD4 (BD1) (Homo sapiens, UniProt O60885); test: HTRF assay BRD4 (BD1); type: binding
T1 construct: purchased Reaction Biology Corp. RD-11-157
Experimental: In brief, compounds were serially diluted in Echo plate according to the plate map and DMSO’s final fraction is 0.1%. Then, transferring compounds and DMSO to 384-well assay plate by Echo. After that, 2× Protein and Peptide Mix was added to the assay plate and 2× Detection Mix was then added to assay plate and shook for 30 s. After incubating the plate at room temperature for 1.5 h, the HTRF signals (Excitation wavelength at 340 nm, Emission wavelength at 615 & 665 nm) was read on EnVision (PerkinElmer, UK). (+)-JQ1 (BPS Bioscience, Cat. No. 27402) was used as a positive control. BRD4-1 (RD-11–157) and BRD4-2 (RD-11–158) were purchased from Reaction Biology Corp. (PENN, USA). For Curve fitting, the inhibition values was calculated in Excel using Equation (1): Inhibition %=(Max-Signal)/(Max-Min)*100, and the IC50 values was calculated in XL-Fit using Equation (2): Y = Bottom + (Top-Bottom)/(1+(IC50/X)[…]), Y is %inhibition and X is compound concentration.

SW620 cells [3] = test: Annexin V-FITC/PI apoptosis analysis, SW620 cells; type: cell-based, human; conditions: SW620, 16 μM, 24 h
Experimental: Cell apoptosis was determined using Annexin V-FITC/PI Apoptosis Detection Kit (BD Biosciences, New Jersey, USA) in according with manufacturer's instruction. Briefly, cells were cultured in 6-well plates (40 000 cells per well) till reaching logarithmic growth phase and then treatment with DMSO or compound ID-11 (8 or 16 μM) for 24 h. Afterwards, the cells were harvested, washed with PBS for twice and stained with 100 μL of the mixture of Annexin V/FITC and PI in binding buffer (v/v, 5: 5: 100) in the darkness for 30 min. Another 200 μL binding buffer was added before detection. The apoptotic cells were then analysed by FACS Calibur flow cytometry immediately.

SW620 cells [4] = test: MTS cell viability assay, SW620 cells; type: cell-based; conditions: Homo sapiens
Description: (§2) Human colorectal cancer cell lines including RKO, SW620 and SW480 were purchased from Chinese Academy of Sciences, a typical cell library culture preservation committee (Shanghai, China). Normal human colon epithelial cell line NCM460 was purchased from ATCC (Washington, DC, USA). RPMI-1640 medium (12633020), foetal bovine serum (FBS, 26170043), penicillin-streptomycin (10378016) and phosphate buffered saline (PBS, 70011044) were purchased from Gibco (Eggenstein, Germany). 5-Fluorouracil (5-FU, E0201010050, purity ≥98%) was purchased from Energy Chemical (Shanghai, China). Dimethyl sulfoxide (DMSO, 41639) was obtained from Sigma-Aldrich (St. Louis, MO). 3–(4,5-dimethylthiazol-2-yl)-5–(3-carboxymethoxyphenyl)-2–(4-sulfophenyl)-2H-tetrazolium (MTS, G1111) was purchased from Promega (Madison, WI, USA). All cell lines were cultured in RPMI-1640 medium supplemented with 10% FBS, penicillin (100 units/mL) and streptomycin ([…]) at 37 °C in a humidified atmosphere containing 5% CO2.
(§3) Cell viability was measured via MTS assay. RKO, SW620, SW480 and NCM460 cells were seeded in 96-well plates at a density of 5000 cells per well for 24 h. After treatment with the test compounds at indicated concentration for another 48 h or 72 h at 37 °C, MTS solution was added to each well and incubated for another 30 min at 37 °C. Then, the absorbance at 490 nm was measured by a BioTek Synergy H4 microplate Reader (Vermont, USA). The IC50 values were calculated with Graphpad 7.0 software packages.

SW620 cells [5] = test: Colony formation, SW620 cells; type: cell-based, human; conditions: 0 to 32 μM for 24 h, then 10 days
Experimental: SW620 and SW480 cells were seeded in 6-well plates (1000 cells per well) and cultured in RPMI-1640 medium containing 10% FBS overnight. After the cells treatment with DMSO or compound ID-11 (4, 8, 16, and 32 μM) for 24 h, the culture medium was replaced by fresh RPMI-1640 medium (containing 10% FBS) and continue culturing for another 10 days. Then the cells were washed with PBS and fixed with methanol for 15 min and stained with 0.1% crystal violet for another 30 min. Finally, the cells were washed with running water, air-dried and visualised by photographing.

SW620 cells [6] = test: Western blot assay, SW620 cells; type: cell-based, human; conditions: 24 h
Experimental: as §1

RKO cells = test: MTS cell viability assay, RKO cells; type: cell-based; conditions: Homo sapiens, 72 h
Description: as §2, §3

With `O=c1ccc2cc(CSC(=S)n3ccnc3)ccc2o1` [ID-11, (2-Oxo-2H-chromen-6-yl)methyl 1H-imidazole-1-carbodithioate] the “expression level of cdc2” value (SW480 cells [1]; SW480, 0 to 16 μM) was “decreased in a concentration-dependent way”, the “expression level of cleaved PARP” value (SW480 cells [1]; SW480, 0 to 16 μM) was “increased in a dose-dependent way” and the “expression level of cyclin B1” value (SW480 cells [1]; SW480, 0 to 16 μM) was “decreased in a concentration-dependent way”. The “protein expression level of Bcl-2” value (SW480 cells [1]; SW480, 0 to 24 μM) was “decreased”, the “protein expression level of c-Myc” value (SW480 cells [1]; SW480, 0 to 24 μM) was “decreased” and the “cell cycle distribution G2 (G2/M phase)” value (SW480 cells [2]) was 21.03%. The inhibition at 10 µM (BRD4 (BD1); 10 μM, read-out: Inhibitory rate at 10 μM, BRD4 (BD1)) was 68.9%, the IC50 (BRD4 (BD1); mean ± SD of three independent experiments) was 7.8 ± 2.2 µM and the total apoptosis rate (SW620 cells [3]) was 73.31%. The viability at 10 µM (SW620 cells [4]; SW-620, 10 μM, 72 h) was 43.9%, the IC50 (SW620 cells [4]; SW-620, 72 h) was 8.81 µM and the colony formation (SW620 cells [5]) was “effectively inhibited”. The “expression level of cdc2” value (SW620 cells [6]; SW620, 0 to 16 μM) was “decreased in a concentration-dependent way”, the “expression level of cleaved PARP” value (SW620 cells [6]; SW620, 0 to 16 μM) was “increased in a dose-dependent way” and the “expression level of cyclin B1” value (SW620 cells [6]; SW620, 0 to 16 μM) was “decreased in a concentration-dependent way”. For the same molecule, the “protein expression level of Bcl-2” value (SW620 cells [6]; SW620, 0 to 24 μM) was “decreased”, the “protein expression level of c-Myc” value (SW620 cells [6]; SW620, 0 to 24 μM) was “decreased” and the viability at 10 µM (RKO cells; 10 μM) was 29.4%. For the same molecule, the IC50 (RKO cells) was 6.4 µM.
